# Test system: rat glima cells (C6)
# Assay: Cytotoxicity test (WST-8)
# Format: cell-based
# Details: 48 hours culture with boron agent, WST-8 absorbance at 450 nm
# Protocol: Using a 96-well microplate, rat glima cells (C6) were seeded at a density of 1.5×10^4 cells/ml per well and then cultured at room temperature (37° C., 5% CO2) for 16 hours. The culture fluid was taken out by suction and the culture fluids containing boron agents at various concentrations obtained in the Examples were added to respective wells in an amount of […] each. After culturing at room temperature (37° C., 5% CO2) for 48 hours, the culture fluid was taken out by suction, […] portions of WST-8 solution were added respectively, and culture was further carried out at room temperature (37° C., 5% CO2) for 4 hours. Using a microplate reader, the absorbance at a wavelength of 450 nm (reference wavelength: 655 nm) was measured and the absorbance of wells not containing cells was employed as background control, to determine each IC50 value.
Compound,IC50 [µM],IC50 (Rattus norvegicus) [µM]
1-amino-4-[(undecahydrododecaboranyl-thio)methyl]cyclohexanone-1-carboxylic acid disodium salt [cis-ACHC-BSH],< 300,–
"N[C@@H](Cc1ccc(B(O)O)cc1)C(=O)O [L-BPA, 4-borono-L-phenylalanine, reference compound]",–,> 2000
cis-1-amino-3-(dodecaboranylthiomethyl)cyclobutanecarboxylic acid trisodium salt [cis-ACBC-BSH],2500,–
trans-1-amino-3-(dodecaboranylthiomethyl)cyclobutane-carboxylic acid trisodium salt [trans-ACBC-BSH],2100,–

# Source: patent US8907128B2, “Boron compound with amino acid skeleton containing cyclo ring-type ring” (Stella Pharma Corporation, priority 2010, dated 2014)
